According to patent US9200051B2, “Peptide compound” (TAKEDA PHARMACEUTICAL COMPANY LIMITED, priority 2013, dated 2015):
Read-outs that look alike come from different tables or passages of the source. Square brackets hold non-standard residues; d marks the D form. Peptide text beside a SMILES is read from it. * marks the point of attachment. αMeY = C[C@](N)(Cc1ccc(O)cc1)C(=O)O; αMeF = C[C@](N)(Cc1ccccc1)C(=O)O; Cha = N[C@@H](CC1CCCCC1)C(=O)O; Aib = CC(C)(N)C(=O)O; Bz = O=C(c1ccccc1)*

Columns and labels:
Type in all cases: cell-based
[1] = target: T1, human glucagon R (Homo sapiens, UniProt P47871); assay: Agonist activity against human glucagon R, CRE-luciferase reporter assay in hGlucagonR/CRE-LUC/CHO-K1 cells
T1 construct: expressed in transfected cells; host or cells: CHO-K1 (CRE-LUC/CHO-K1), plasmid hGlucagonR/pMSRα-neo
T1 sequence (P47871 26-477): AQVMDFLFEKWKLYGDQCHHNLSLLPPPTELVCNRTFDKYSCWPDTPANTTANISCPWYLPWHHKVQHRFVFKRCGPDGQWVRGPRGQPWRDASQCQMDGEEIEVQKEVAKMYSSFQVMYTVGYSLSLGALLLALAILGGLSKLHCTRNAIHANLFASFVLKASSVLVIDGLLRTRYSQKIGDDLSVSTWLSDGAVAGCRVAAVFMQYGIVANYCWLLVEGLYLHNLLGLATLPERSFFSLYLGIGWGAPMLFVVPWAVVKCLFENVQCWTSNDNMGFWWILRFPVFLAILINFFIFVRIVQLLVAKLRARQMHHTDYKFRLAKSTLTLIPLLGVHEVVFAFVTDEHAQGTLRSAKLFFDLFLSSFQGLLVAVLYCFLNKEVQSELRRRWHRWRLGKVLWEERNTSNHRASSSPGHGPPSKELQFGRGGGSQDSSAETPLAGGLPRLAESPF

[2] = target: T2, human GLP-1R (Homo sapiens, UniProt P43220); assay: Agonist activity against human GLP-1R, CRE-luciferase reporter assay in hGLP-1R/CRE-luc/CHO-K1 cells
T2 construct: expressed in transfected cells; host or cells: CHO-K1, plasmids hGLP-1/pIRESneo3 and Cre-luc(Zeo)
T2 sequence (P43220 24-463): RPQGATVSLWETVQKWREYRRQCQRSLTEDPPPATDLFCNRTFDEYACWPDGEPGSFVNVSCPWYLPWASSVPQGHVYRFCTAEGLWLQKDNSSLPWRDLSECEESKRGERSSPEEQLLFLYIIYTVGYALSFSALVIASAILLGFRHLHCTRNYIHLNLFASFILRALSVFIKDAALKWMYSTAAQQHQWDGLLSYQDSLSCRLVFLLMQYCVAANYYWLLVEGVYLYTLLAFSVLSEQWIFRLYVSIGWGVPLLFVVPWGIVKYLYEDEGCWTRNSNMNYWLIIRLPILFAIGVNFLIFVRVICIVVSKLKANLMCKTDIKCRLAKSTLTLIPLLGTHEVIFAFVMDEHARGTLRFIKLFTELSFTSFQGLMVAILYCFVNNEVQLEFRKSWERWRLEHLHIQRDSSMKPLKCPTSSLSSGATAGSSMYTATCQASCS

[3] = target: T3, human GIPR (Homo sapiens, UniProt P48546); assay: Agonist activity against human GIPR, CRE-luciferase reporter assay (rise in intracellular cAMP) in hGIPR/CRE-LUC/CHO-K1 cells
T3 construct: expressed in transfected cells; host or cells: CHO-K1 (CRE-LUC/CHO-K1), plasmid hGIPR/pMSRα-neo
T3 sequence (P48546 22-466): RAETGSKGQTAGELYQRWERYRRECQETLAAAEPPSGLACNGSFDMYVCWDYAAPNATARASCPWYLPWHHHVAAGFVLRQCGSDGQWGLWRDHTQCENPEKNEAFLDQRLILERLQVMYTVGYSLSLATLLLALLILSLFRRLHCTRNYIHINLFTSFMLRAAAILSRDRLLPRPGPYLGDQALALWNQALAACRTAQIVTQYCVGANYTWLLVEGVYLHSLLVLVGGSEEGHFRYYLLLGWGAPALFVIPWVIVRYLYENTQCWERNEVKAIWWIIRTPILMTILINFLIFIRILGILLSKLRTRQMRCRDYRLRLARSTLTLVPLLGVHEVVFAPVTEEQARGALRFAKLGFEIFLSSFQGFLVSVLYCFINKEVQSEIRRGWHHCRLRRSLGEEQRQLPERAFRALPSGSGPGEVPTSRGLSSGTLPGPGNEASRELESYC

Row | SMILES | EC50 [1] [nM] | EC50 [2] [nM] | EC50 [3] [nM] | EC50 ([1]; hGlucagonR/CRE-LUC/CHO-K1 cells, 4 hours incubation, 10 nM glucagon = 100%, read-out: Agonist activity (EC50) hGCGR) [nM] | EC50 ([2]; hGLP-1R/CRE-luc/CHO-K1 cells, 4 hours incubation, 10 nM GLP-1 = 100%, read-out: Agonist activity (EC50) hGLP-1R) [nM] | EC50 ([3]; hGIPR/CRE-LUC/CHO-K1 cells, 4 hours incubation, 10 nM GIP = 100%, read-out: Agonist activity (EC50) hGIPR) [nM]
1 | CC[C@H](C)[C@H](NC(=O)C(C)(C)NC(=O)[C@H](Cc1ccc(O)cc1)NC(=O)[C@H](CC(=O)O)NC(=O)[C@H](CO)NC(=O)[C@@H](NC(=O)[C@](C)(Cc1ccccc1)NC(=O)[C@@H](NC(=O)CNC(=O)[C@H](CCC(=O)O)NC(=O)C(C)(C)NC(=O)[C@@H](N)Cc1ccc(O)cc1)[C@@H](C)O)[C@@H](C)O)C(=O)N[C@@H](CC1CCCCC1)C(=O)N[C@@H](CC(C)C)C(=O)N[C@@H](CC(=O)O)C(=O)N[C@@H](CCCCN)C(=O)N[C@@H](CCC(N)=O)C(=O)N[C@@H](C)C(=O)N[C@@H](CCC(N)=O)C(=O)N[C@@H](C)C(=O)N[C@@H](CCC(=O)O)C(=O)N[C@@H](Cc1ccccc1)C(=O)N[C@H](C(=O)N[C@@H](CCCCN)C(=O)N[C@@H](Cc1c[nH]c2ccccc12)C(=O)N[C@@H](CC(C)C)C(=O)N[C@@H](CC(C)C)C(=O)N[C@@H](CCCCN)C(=O)NCC(=O)NCC(=O)N1CCC[C@H]1C(=O)N[C@@H](CO)C(=O)N[C@@H](CO)C(=O)NCC(=O)N[C@@H](C)C(=O)N1CCC[C@H]1C(=O)N1CCC[C@H]1C(=O)N1CCC[C@H]1C(=O)N[C@@H](CO)C(=O)N[C@@H](CCCCN)C(N)=O)C(C)C [Example 14] (H-Y[Aib]EGT[αMeF]TSDY[Aib]I[Cha]LDKQAQAEFVKWLLKGGPSSGAPPPSK-NH2) | > 1000 | 0.021 | 0.013 | – | – | –
2 | CC(C)C[C@H](NC(=O)[C@H](CC(C)C)NC(=O)[C@H](Cc1c[nH]c2ccccc12)NC(=O)[C@H](CCCCN)NC(=O)[C@@H](NC(=O)[C@H](Cc1ccccc1)NC(=O)[C@H](CCC(=O)O)NC(=O)[C@H](C)NC(=O)[C@H](CCC(N)=O)NC(=O)[C@H](C)NC(=O)[C@H](CCC(N)=O)NC(=O)[C@H](CCCCN)NC(=O)[C@H](CC(=O)O)NC(=O)[C@H](CC(C)C)NC(=O)[C@](C)(Cc1ccccc1)NC(=O)[C@H](CCCCN)NC(=O)C(C)(C)NC(=O)[C@H](Cc1ccc(O)cc1)NC(=O)[C@H](CC(=O)O)NC(=O)[C@H](CO)NC(=O)[C@@H](NC(=O)[C@](C)(Cc1ccccc1)NC(=O)[C@@H](NC(=O)CNC(=O)[C@H](CCC(=O)O)NC(=O)C(C)(C)NC(=O)[C@@H](N)Cc1ccc(O)cc1)[C@@H](C)O)[C@@H](C)O)C(C)C)C(=O)N[C@@H](CCCCN)C(=O)NCC(=O)NCC(=O)N1CCC[C@H]1C(=O)N[C@@H](CO)C(=O)N[C@@H](CO)C(=O)NCC(=O)N[C@@H](C)C(=O)N1CCC[C@H]1C(=O)N1CCC[C@H]1C(=O)N1CCC[C@H]1C(=O)N[C@@H](CO)C(=O)N[C@@H](CCCCN)C(N)=O [Example 15] (H-Y[Aib]EGT[αMeF]TSDY[Aib]K[αMeF]LDKQAQAEFVKWLLKGGPSSGAPPPSK-NH2) | > 1000 | 0.015 | 0.013 | – | – | –
3 | CC(C)C[C@H](NC(=O)[C@H](CC(C)C)NC(=O)[C@H](Cc1c[nH]c2ccccc12)NC(=O)[C@H](CCCCN)NC(=O)[C@@H](NC(=O)[C@H](Cc1ccccc1)NC(=O)[C@H](CCC(=O)O)NC(=O)[C@H](C)NC(=O)[C@H](CCC(N)=O)NC(=O)[C@H](C)NC(=O)[C@H](CCC(N)=O)NC(=O)[C@H](CCCCN)NC(=O)[C@H](CC(=O)O)NC(=O)[C@H](CC(C)C)NC(=O)[C@H](CC1CCCCC1)NC(=O)[C@H](CCCCN)NC(=O)C(C)(C)NC(=O)[C@H](Cc1ccc(O)cc1)NC(=O)[C@H](CC(=O)O)NC(=O)[C@H](CO)NC(=O)[C@@H](NC(=O)[C@](C)(Cc1ccccc1)NC(=O)[C@@H](NC(=O)CNC(=O)[C@H](CCC(=O)O)NC(=O)C(C)(C)NC(=O)[C@@H](N)Cc1ccc(O)cc1)[C@@H](C)O)[C@@H](C)O)C(C)C)C(=O)N[C@@H](CCCCN)C(=O)NCC(=O)NCC(=O)N1CCC[C@H]1C(=O)N[C@@H](CO)C(=O)N[C@@H](CO)C(=O)NCC(=O)N[C@@H](C)C(=O)N1CCC[C@H]1C(=O)N1CCC[C@H]1C(=O)N1CCC[C@H]1C(=O)N[C@@H](CO)C(=O)N[C@@H](CCCCN)C(N)=O [Example 16] (H-Y[Aib]EGT[αMeF]TSDY[Aib]K[Cha]LDKQAQAEFVKWLLKGGPSSGAPPPSK-NH2) | > 1000 | 0.015 | 0.0091 | – | – | –
4 | CC[C@H](C)[C@H](NC(=O)C(C)(C)NC(=O)[C@H](Cc1ccc(O)cc1)NC(=O)[C@H](CC(=O)O)NC(=O)[C@H](CO)NC(=O)[C@@H](NC(=O)[C@](C)(Cc1ccccc1)NC(=O)[C@@H](NC(=O)CNC(=O)[C@H](CCC(=O)O)NC(=O)C(C)(C)NC(=O)[C@@H](N)Cc1ccc(O)cc1)[C@@H](C)O)[C@@H](C)O)C(=O)N[C@@](C)(Cc1ccc(O)cc1)C(=O)N[C@@H](CC(C)C)C(=O)N[C@@H](CC(=O)O)C(=O)N[C@@H](CCCCN)C(=O)N[C@@H](CCC(N)=O)C(=O)N[C@@H](C)C(=O)N[C@@H](CCC(N)=O)C(=O)N[C@@H](C)C(=O)N[C@@H](CCC(=O)O)C(=O)N[C@@H](Cc1ccccc1)C(=O)N[C@H](C(=O)N[C@@H](CCCCN)C(=O)N[C@@H](Cc1c[nH]c2ccccc12)C(=O)N[C@@H](CC(C)C)C(=O)N[C@@H](CC(C)C)C(=O)N[C@@H](CCCCN)C(=O)NCC(=O)NCC(=O)N1CCC[C@H]1C(=O)N[C@@H](CO)C(=O)N[C@@H](CO)C(=O)NCC(=O)N[C@@H](C)C(=O)N1CCC[C@H]1C(=O)N1CCC[C@H]1C(=O)N1CCC[C@H]1C(=O)N[C@@H](CO)C(=O)N[C@@H](CCCCN)C(N)=O)C(C)C [Example 17] (H-Y[Aib]EGT[αMeF]TSDY[Aib]I[αMeY]LDKQAQAEFVKWLLKGGPSSGAPPPSK-NH2) | > 1000 | 0.018 | 0.014 | – | – | –
5 | CC[C@H](C)[C@H](NC(=O)C(C)(C)NC(=O)[C@H](Cc1ccc(O)cc1)NC(=O)[C@H](CC(=O)O)NC(=O)[C@H](CO)NC(=O)[C@@H](NC(=O)[C@](C)(Cc1ccccc1)NC(=O)[C@@H](NC(=O)CNC(=O)[C@H](CCC(=O)O)NC(=O)C(C)(C)NC(=O)[C@H](Cc1ccc(O)cc1)NC(C)=O)[C@@H](C)O)[C@@H](C)O)C(=O)NC(C)(C)C(=O)N[C@@H](CC(C)C)C(=O)N[C@@H](CC(=O)O)C(=O)N[C@@H](CCCCN)C(=O)N[C@@H](CCC(N)=O)C(=O)N[C@@H](C)C(=O)N[C@@H](CCC(N)=O)C(=O)N[C@@H](C)C(=O)N[C@@H](CCC(=O)O)C(=O)N[C@@H](Cc1ccccc1)C(=O)N[C@H](C(=O)N[C@@H](CCCCN)C(=O)N[C@@H](Cc1c[nH]c2ccccc12)C(=O)N[C@@H](CC(C)C)C(=O)N[C@@H](CC(C)C)C(=O)N[C@@H](CCCCN)C(=O)NCC(=O)NCC(=O)N1CCC[C@H]1C(=O)N[C@@H](CO)C(=O)N[C@@H](CO)C(=O)NCC(=O)N[C@@H](C)C(=O)N1CCC[C@H]1C(=O)N1CCC[C@H]1C(=O)N1CCC[C@H]1C(=O)N[C@@H](CO)C(=O)N[C@@H](CCCCN)C(N)=O)C(C)C [Example 18] (Ac-Y[Aib]EGT[αMeF]TSDY[Aib]I[Aib]LDKQAQAEFVKWLLKGGPSSGAPPPSK-NH2) | – | – | – | > 1000 | 0.13 | 0.027
6 | CC[C@H](C)[C@H](NC(=O)C(C)(C)NC(=O)[C@H](Cc1ccc(O)cc1)NC(=O)[C@H](CC(=O)O)NC(=O)[C@H](CO)NC(=O)[C@@H](NC(=O)[C@](C)(Cc1ccccc1)NC(=O)[C@@H](NC(=O)CNC(=O)[C@H](CCC(=O)O)NC(=O)C(C)(C)NC(=O)[C@H](Cc1ccc(O)cc1)NC(=O)c1ccccc1)[C@@H](C)O)[C@@H](C)O)C(=O)NC(C)(C)C(=O)N[C@@H](CC(C)C)C(=O)N[C@@H](CC(=O)O)C(=O)N[C@@H](CCCCN)C(=O)N[C@@H](CCC(N)=O)C(=O)N[C@@H](C)C(=O)N[C@@H](CCC(N)=O)C(=O)N[C@@H](C)C(=O)N[C@@H](CCC(=O)O)C(=O)N[C@@H](Cc1ccccc1)C(=O)N[C@H](C(=O)N[C@@H](CCCCN)C(=O)N[C@@H](Cc1c[nH]c2ccccc12)C(=O)N[C@@H](CC(C)C)C(=O)N[C@@H](CC(C)C)C(=O)N[C@@H](CCCCN)C(=O)NCC(=O)NCC(=O)N1CCC[C@H]1C(=O)N[C@@H](CO)C(=O)N[C@@H](CO)C(=O)NCC(=O)N[C@@H](C)C(=O)N1CCC[C@H]1C(=O)N1CCC[C@H]1C(=O)N1CCC[C@H]1C(=O)N[C@@H](CO)C(=O)N[C@@H](CCCCN)C(N)=O)C(C)C [Example 19] (Bz-Y[Aib]EGT[αMeF]TSDY[Aib]I[Aib]LDKQAQAEFVKWLLKGGPSSGAPPPSK-NH2) | > 1000 | 0.037 | 0.024 | – | – | –
